According to a compilation of properties of binary mixtures (doi:10.1021/acs.jpcb.7b01654):

Test: xn = mol fraction of the nth substance listed
Settings: 100 kPa

CC[n+]1ccn(C)c1.O=S(=O)([N-]S(=O)(=O)C(F)(F)F)C(F)(F)F + CCCCCCCCCCCC[n+]1ccn(C)c1.O=S(=O)([N-]S(=O)(=O)C(F)(F)F)C(F)(F)F
x2 = 0
Settings | viscosity [mPa·s]
283 K | 56.8
288 K | 44.6
298 K | 29.7
303 K | 24.8
308 K | 21
318 K | 15.57
323 K | 13.28

CCCCCCCCCCCC[n+]1ccn(C)c1.O=S(=O)([N-]S(=O)(=O)C(F)(F)F)C(F)(F)F + CC[n+]1ccn(C)c1.O=S(=O)([N-]S(=O)(=O)C(F)(F)F)C(F)(F)F
viscosity [mPa·s]
Settings | 293 K | 298 K | 303 K | 308 K | 313 K | 318 K | 323 K | 328 K | 333 K
x1 = 0.01 | 36.2 | 29.4 | 24.3 | 20.5 | 17.6 | 15.26 | 13.19 | 11.69 | 10.4
x1 = 0.04 | 37.9 | 30.8 | 25.5 | 21.5 | 18.4 | 15.96 | 13.82 | – | 10.81
x1 = 0.08 | 41.4 | 33.5 | 27.6 | 23.2 | 19.8 | 17 | – | 12.89 | 11.37
x1 = 0.16 | 47.6 | – | – | 26.1 | 22.1 | 19 | 16 | 14.06 | –
x1 = 0.24 | 57.4 | 45.7 | – | 30.7 | 25.7 | 21.9 | 18.6 | 16.17 | 14.13
x1 = 0.32 | 69.1 | 54.2 | 43.6 | 35.6 | 29.6 | 24.8 | – | 18 | 15.5
x1 = 0.43 | 85.1 | 66 | 52.4 | 42.4 | 34.8 | 28.9 | 23.8 | 20.4 | 17.6
x1 = 0.52 | 94.7 | 73.2 | 57.7 | 46.6 | 38.3 | 31.7 | 26.1 | 22.2 | 19.1
x1 = 0.63 | 116 | 88.7 | 69.3 | 55.3 | 44.8 | 36.9 | 30.3 | 25.5 | 21.7
x1 = 0.74 | 137 | 104 | 80.6 | – | 51.3 | 42 | – | 28.7 | 24.1
x1 = 0.87 | 158 | 119 | 91.7 | 71.9 | 57.4 | 46.5 | 37.4 | 31.1 | 26.1
x1 = 0.92 | 182 | 135 | 102 | 79 | 62.1 | 49.8 | 40.2 | 33 | –
x1 = 0.96 | – | 149 | 114 | – | – | 56.2 | 45.5 | 37.4 | 31.2
x1 = 1 | 193 | 143 | – | 84 | 66.2 | 53 | 42.65 | 34.9 | 28.87
x2 = 0.01 | 199 | 149 | 113 | 88.4 | 70 | 56.3 | – | 37.5 | 31.3
